Columns and labels:
[1] = tested on: MOG surface expression in cortical oligodendrocytes; assay: MOG cell surface label, cortical oligodendrocytes (time course and dose response); format: cell-based, rat
Experimental: (§1) Purified rat optic nerve and enriched rat cortical oligodendrocytes were first grown in mitogenic medium and then switched to differentiation medium. Stimulated oligodendrocytes received the ADORA1 agonist, MECA, 24 hours later. Optic nerve oligodendrocytes were assessed 2, 4, and 6 days post MECA treatment, cortical oligodendrocytes, 3, 5, and 7 days post treatment. For the MOG cell surface label, cells were incubated with the anti-MOG antibody (1 μg/ml) for one hour at room temperature in phosphate buffered saline (PBS) containing sodium-pyruvate and glucose (Invitrogen) to ensure survival of cells during this time. Subsequently the cells were fixed, incubated in PBS containing 50% goat serum at RT for 30 minutes and incubated with a secondary antibody (FITC- or Cy3-coupled goat anti-mouse IgG antibody from Jackson Immunoresearch).
To determine whether the surface expression of MOG would follow the same time course as that observed for the ADORA1 agonist, MECA, in the optic nerve myelination system, oligodendrocyte-enriched cortical cells were plated on PEI-coated plates in mitogenic medium, containing PDGFAA, and NT3 as factors stimulating proliferation. After 3 days, cells were switched to differentiation medium containing CNTF and NT3. 200 μM MECA was added either the same day or 24 hours later and was incubated on the cells for 24 hours, 48 hours, 72 hours, 4 days, and 7 days continuously. The cells were surface-labeled with an antibody to MOG, after the described incubation. For the ADORA1 agonist dose response experiment, MECA was added at concentrations of 200 μM, 100 μM, 50 μM, 25 μM and 12.5 μM, 24 hours after switching to differentiation medium, and was incubated on the cells continuously. On day 7, cells were surface-labeled with an anti-MOG antibody.

[2] = tested on: optic nerve oligodendrocytes; assay: In vitro myelination assay: co-culture of retinal ganglion cells and optic nerve oligodendrocytes; format: cell-based, rat
Experimental: Co-cultures of RGCs and optic nerve oligodendrocytes were prepared and used as follows. Purified oligodendrocytes were plated on PDL/merosin (Chemicon) substrate-coated tissue culture dishes in defined DMEM Sato medium, promoting proliferation for two days. After 2 days, the medium was switched to defined DMEM Sato medium, which contained factors to promote differentiation. Twenty-four hours after the switch to differentiation medium, ADORA1 agonists were added. Retinal ganglion cells were plated 24 hours thereafter, and the medium consisted of 50% astrocyte-conditioned medium (method see above) with DMEM Sato medium mixed with fresh defined Neurobasal™ (Invitrogen) Sato medium, containing B27™ supplement and growth factors (BDNF and CNTF), to promote retinal ganglion cell survival and 0.5% FBS. The FBS was added to help retinal ganglion cell survival. This is because forskolin, which up-regulates cAMP, could not be used when adding any ADORA agonists or antagonists, since these receptors are G-protein-coupled receptors and therefore, regulators of cAMP themselves. Cultures were grown for two weeks, with medium changes occurring every three days.
Optic nerve or cortical oligodendrocytes were purified from postnatal day 2-day 5 old rat pups by immuno-panning with the A2B5 antibody (ATCC). Retinal ganglion cells were purified from 5 day old rats by immunopanning with the Thy1 antibody T11D7.
Purified oligodendrocytes were plated on PDL/merosin substrate-coated tissue culture dishes in defined DMEM Sato medium, promoting proliferation for two days. After 2 days, the medium was switched to defined DMEM Sato medium, containing factors promoting differentiation. Twenty-four hours after the switch to differentiation medium, ADORA1 agonists were added. Retinal ganglion cells were plated 24 hours thereafter, and medium consisted of astrocyte-conditioned medium with DMEM Sato medium mixed with defined Neurobasal™ Sato medium, containing growth factors promoting retinal ganglion cell survival and 0.5% FBS.
Cultures were grown for two weeks, with medium changes occurring every three days. Control co-cultures were devoid of myelin segments, whereas oligodendrocytes co-cultures with ADORA1 agonist contained myelin segments originating from approximately 90% of the oligodendrocytes in these cultures.
To address whether the effect of the adenosine 1 receptor (ADORA1) agonist only affects oligodendrocytes, or also affects retinal ganglion cells (RGCs) to lead to myelination, purified rat optic nerve oligodendrocytes were plated on PEI-pre-coated culture dishes (6-well plates, Falcon BD) in mitogenic medium and cultured for two days. After two days, oligodendrocytes were switched to differentiation medium and the agonist MECA (Sigma) was added at a 200 μM concentration to this culture medium 24 hours later. The agonist was removed by washing the cells at 24, 48 and 72 hours, respectively, after its administration. Oligodendrocytes were subsequently taken off the PEI plates by incubation with Trypsin (535 units/ml) in Earle's Balanced Salt Solution (EBSS; Invitrogen) at 37° C. for 5 minutes, washed with PBS containing 30% FBS (Hyclone) and were plated onto RGCs grown for one week on PDL/merosin substrate. Cultures were fixed for immunohistochemistry two weeks after co-plating the oligodendrocytes with the RGCs. Since the oligodendrocytes were pre-incubated separately with the ADORA1 agonist before they were added to the RGCs, the myelin figures observed in FIG. 6 are due to the switch in the oligodendrocytes themselves from a non-myelinating to a myelinating phenotype.
To address the question of whether it is a permanent or a reversible switch if the oligodendrocytes are cultured without neurons, oligodendrocytes were treated with ADORA1 agonist for 72 hours and kept in culture alone for another 5 days. Cultured oligodendrocytes were then removed from the PEI-coated plate and co-cultured with RGCs grown for one week in culture. […]

[3] = tested on: rhoA expression in rat optic nerve oligodendrocytes; assay: rhoA expression by Quantitative RT-PCR in MECA-treated oligodendrocytes; format: cell-based
Experimental: Primers and probes were designed using the Primer Express software from Applied Biosystems. Probes were designed with 6-FAM as fluorophore at the 5′end and TAMRA as quencher at the 3′ end. QRT-PCR reactions were set up as a one-step reaction using 20 ng of total RNA as template, and included 1× Taqman™ buffer, 5 mM MgCl2, 1.5 mM dNTP mix, 300 nM forward and reverse primers, […] Taqman™ probe, 20 units RNase inhibitor, 5 units Multiscribe™ MuLV reverse transcriptase and 2 units AmpliTaq™ Gold DNA polymerase in a 50 microliter reaction. All reagents used were from Applied Biosystems. Reactions were run on a ABI 7500 using the following cycling conditions: “Hold” at 48° C. for 30 minutes, “Hold” at 95 for 10 minutes, “Denature” at 95° C. for 15 seconds, and “Anneal/Extend” at 60° C. for 1 minute. The last two steps were repeated for 40 cycles.
RhoA is a member of the Ras superfamily of small GTPases and functions as a GDP/GTP—regulated binary switch that regulates signal transduction pathways controlling actin cytoskeletal reorganization. […] Expression of rhoA was determined by Quantitative RT-PCR in oligodendrocytes treated with MECA or untreated for various times, as set forth below. […] Quantitative RT-PCR was set up as per standard protocol as a single step reaction. […]

[4] = tested on: optic nerve oligodendrocytes; assay: Gene expression profiling, control vs 1-day MECA-treated ON-oligodendrocytes; format: cell-based, rat; details: p-value <0.05, 1.2 fold-change cutoff
Experimental: Based on the results obtained with rhoA expression, 24 hours was selected as the first time point in a broader gene expression analysis. Total RNA was isolated from control, and MECA-stimulated oligodendrocytes were harvested 24 hours after the addition of MECA. RNA samples were generated in triplicate, each replicate generated by pooling RNA from three separate oligodendrocyte preps (one prep from 12 litters (10 pups each) of post-natal day 5 SD pups). RNA samples were analyzed by gene expression profiling using the Affymetrix GeneChip™ Rat genome 230 2.0 Array that provides coverage of approximately 30,000 transcripts, i.e., the entire transcribed rat genome. RNA submitted was amplified by Expression Analysis using the MessageAmp II aRNA kit from Ambion to generate sufficient amounts of RNA for hybridization to arrays. A2B5 and cells were plated in 6-well plates and allowed to divide for 48 hours. Approximately 500,000 cells were plated per well. Two micrograms of RNA was subsequently used for analysis.
To identify gene expression changes occurring during myelination, total RNA was isolated from control and MECA-stimulated oligodendrocytes 24 hours after the addition of MECA. RNA samples were generated in triplicate, each replicate generated by pooling RNA from three separate oligodendrocyte preps. RNA samples (2 μg/sample) were submitted to Expression Analysis for gene expression profiling using the Affymetrix GeneChip™ Rat genome 230 2.0 Array that provides coverage of approximately 30,000 transcripts. RNA submitted using the MessageAmp II aRNA kit from Ambion to generate sufficient amounts of RNA for hybridization to arrays.

[5] = tested on: cortical oligodendrocytes; assay: Gene expression profiling (Affymetrix Rat 230 2.0), control vs 1-day MECA stimulated cortical oligodendrocytes; format: cell-based
From the text: As a second filter to determine which genes were commonly regulated between pure optic nerve and enriched cortical oligodendrocytes, gene expression analysis comparing non-myelinating cortical oligodendrocytes with 1-day MECA induced cortical oligodendrocytes committed to myelination was made. Since cortical oligodendrocyte cell preparations yield larger numbers of cells, determining overlap between 1-day MECA treated ON-oligodendrocytes and 1-day MECA treated cortical oligodendrocytes help determine if use of cortical oligodendrocytes for future experiments to test genes of interest is a feasible option. Cortical oligodendrocytes were isolated from 2 litters of newborn SD rat pups. RNA for replicates were isolated from the cells which were plated on 3 separate 6-well tissue culture plates (approximately 500,000 cells per well) with control and treated cells included in separate wells on each plate. The important caveat to keep in mind when comparing gene expression in cortical oligodendrocytes with ON-oligodendrocytes is that the cortical oligodendrocytes are not a pure cell population. Cortical oligodendrocytes comprise approximately 80% oligodendrocytes and about 20% astrocytes, with some neuronal cells. Total RNA was generated in triplicate and hybridized to Affymetrix GeneChip™ Rat 230 2.0 arrays with approximately 30,000 genes. RNA submitted for analysis was amplified using the MessageAmp II aRNA kit from Ambion to generate sufficient amounts of RNA for hybridization to arrays and to keep sample preparation conditions similar to 1-day control and MECA treated ON-oligodendrocytes set forth elsewhere herein. Table 2 provides a summary of differentially regulated genes from comparison of control and 1-day MECA stimulated cortical oligodendrocytes.

[6] = tested on: MOG surface expression in optic nerve oligodendrocytes; assay: MOG cell surface label, optic nerve oligodendrocytes; format: cell-based, rat; details: after 6 days; control oligodendrocytes up-regulated MOG
Experimental: as §1

[7] = tested on: optic nerve oligodendrocytes; assay: Gene expression profiling (Affymetrix Rat genome 230 2.0), control vs 3-day MECA stimulated ON-oligodendrocytes; format: cell-based; details: p-value <0.05
From the text: To identify transient versus long-term gene expression changes, control and 3-day ADORA1 agonist (MECA) stimulated optic nerve oligodendrocytes were compared. As described elsewhere herein, 3 days of ADORA1 stimulation were sufficient to obtain myelin segments in the optic nerve myelination system. RNA samples were generated in triplicate, each replicate generated by pooling RNA from two separate oligodendrocyte preps (one prep from 12 litters of post-natal day 4 SD pups). RNA samples were analyzed for gene expression profiling using the Affymetrix GeneChip™ Rat genome 230 2.0 Array that provides coverage of approximately 30,000 transcripts. RNA was amplified using the MessageAmp II aRNA kit from Ambion to generate sufficient amounts of RNA for hybridization to arrays, as previously described.

[8] = tested on: cortical oligodendrocytes; details: added to the co-cultures; cited from earlier work

For CNC(=O)[C@H]1O[C@@H](n2cnc3c(N)ncnc32)[C@H](O)[C@@H]1O [MECA, 5′-N-methylcarboxamidoadenosine], the “time MECA must be present to repress MOG surface expression” value ([1]; 200 μM MECA) was “at least 72 hours”, the “MOG protein expression on the cell surface” value ([1]; after 7 days, control oligodendrocytes up-regulated MOG) was “remained low” and the “concentrations insufficient to repress MOG surface expression” value ([1]; continuous incubation, surface label on day 7) was “below 100 μM”. The “amount of myelin figures with continuous agonist” value ([2]; MECA present throughout the two weeks of co-culture with RGCs) was “optimal amount of myelin figures”, the “myelin formation versus control cultures” value ([2]; after eight days in co-culture) was “myelin was observed covering the whole length of an axon” and the “myelin formation versus control cultures” value ([2]; after five days in co-culture) was “no significant difference”. For the same molecule, the “myelin formation versus control cultures” value ([2]; after two weeks in co-culture) was “the segments (internodes) form”, the “switch from non-myelinating to myelinating phenotype: permanent or reversible” value ([2]; agonist 72 hours, then 5 days in culture alone, then co-culture with RGCs two weeks) was “permanent switch” and the “doses that would not produce myelin segments” value ([2]; optic nerve myelination system dose-response) was “below 100 μM”. For the same molecule, the “rhoA expression compared to control (untreated)” value ([3]; day 1 of MECA treatment, n=3) was “two-fold reduction”, the “rhoA expression compared to control (untreated)” value ([3]; other time points (6 hours, 16 hours, 2 days, 3 days)) was “No significant differences” and the “overlap of differentially regulated genes between ON- and cortical oligodendrocytes” value [4] was 414 genes. The “total differentially regulated genes in the group comparison” value [4] was 1831 genes, the “genes exclusive to ON-oligodendrocytes” value ([4]; versus cortical oligodendrocytes) was 1417 genes and the “differentially regulated genes, fold change >1.1 fold” value ([5]; p-value <0.05) was 1969 genes. The “differentially regulated genes, fold change >1.2 fold” value ([5]; p-value <0.05) was 1425 genes, the “differentially regulated genes, fold change >1.5 fold” value ([5]; p-value <0.05) was 252 genes and the down-regulated changes ([5]; p-value <0.05) was 49%. The up-regulated changes ([5]; p-value <0.05) was 51%, the “total differentially regulated genes in the group comparison” value ([5]; p-value <0.05, 1.2 fold-change cutoff) was 1339 genes and the “genes exclusive to cortical oligodendrocytes” value ([5]; p-value <0.05, 1.2 fold-change cutoff, versus ON-oligodendrocytes) was 925 genes. For the same molecule, the “MOG protein expression on the cell surface” value [6] was “remained low”, the “differentially regulated genes, fold change >1.1 fold” value [7] was 2721 genes and the “differentially regulated genes, fold change >1.2 fold” value [7] was 2428 genes. The “differentially regulated genes, fold change >1.5 fold” value [7] was 1021 genes, the down-regulated changes [7] was 52% and the up-regulated changes [7] was 48%.
For Nc1ncnc2c1ncn2[C@@H]1O[C@H](CO)[C@@H](O)[C@H]1O [adenosine], the “adenosine responsiveness as measured by percentage of myelination” value ([2]; early versus late stage of oligodendrocyte differentiation) is listed as “more responsive to adenosine at the early stage of differentiation”, the “oligodendrocytes establishing segments of myelin on individual axons” value ([2]; in the presence of adenosine or ADORA1 agonist, co-culture grown two weeks, control devoid of myelin segments) is listed as “approximately 90%” and the “amount of myelin observed” value [8] is listed as “increased the amount of myelin observed”.

— US20060183147A1, “Methods of identifying genes which modulate myelination” (Elan Pharmaceuticals, Inc., priority 2005, published 2006)
